Measurements from ChEMBL document CHEMBL4507304, “Data for DCP probe TP-021” (2021).

Columns and labels:
[1] = molecular target: cAMP-dependent protein kinase catalytic subunit PRKX (Homo sapiens) (UniProt P51817); conditions: Compound concentration 1000.0 nM
[2] = molecular target: Mitogen-activated protein kinase kinase kinase 9 (Homo sapiens) (UniProt P80192); conditions: Compound concentration 1000.0 nM
[3] = molecular target: Wee1-like protein kinase 2 (Homo sapiens) (UniProt P0C1S8); conditions: Compound concentration 1000.0 nM
[4] = test system: ALK tyrosine kinase receptor (Homo sapiens), Q9UM73 [L1196M]; conditions: Compound concentration 1000.0 nM
[5] = molecular target: Tyrosine-protein kinase Lyn (Homo sapiens) (UniProt P07948); conditions: Compound concentration 1000.0 nM
Chain of Tyrosine-protein kinase Lyn (Homo sapiens) (P07948 2-512 limits assumed): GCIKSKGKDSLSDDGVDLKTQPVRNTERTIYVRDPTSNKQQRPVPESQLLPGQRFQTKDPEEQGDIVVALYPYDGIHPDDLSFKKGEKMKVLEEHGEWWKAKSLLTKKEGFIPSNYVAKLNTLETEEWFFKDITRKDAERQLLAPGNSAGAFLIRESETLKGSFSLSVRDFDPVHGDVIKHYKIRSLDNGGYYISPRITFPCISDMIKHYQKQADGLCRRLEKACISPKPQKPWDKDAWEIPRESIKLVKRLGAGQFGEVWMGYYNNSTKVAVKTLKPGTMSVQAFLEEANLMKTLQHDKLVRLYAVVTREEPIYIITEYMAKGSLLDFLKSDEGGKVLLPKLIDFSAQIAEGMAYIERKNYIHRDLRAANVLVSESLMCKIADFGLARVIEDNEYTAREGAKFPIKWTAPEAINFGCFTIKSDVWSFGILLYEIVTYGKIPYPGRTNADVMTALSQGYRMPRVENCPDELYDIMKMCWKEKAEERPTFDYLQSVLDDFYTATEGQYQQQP

[6] = molecular target: Dual specificity protein kinase CLK3 (Homo sapiens) (UniProt P49761); conditions: Compound concentration 1000.0 nM
[7] = molecular target: Interleukin-1 receptor-associated kinase 4 (Homo sapiens) (UniProt Q9NWZ3); conditions: Compound concentration 1000.0 nM
[8] = test system: Hepatocyte growth factor receptor (Homo sapiens), P08581 [Y1235D]; conditions: Compound concentration 1000.0 nM
[9] = molecular target: Phosphorylase b kinase regulatory subunit alpha, liver isoform (Homo sapiens) (UniProt P46019); conditions: Compound concentration 1000.0 nM
Chain of Phosphorylase b kinase regulatory subunit alpha, liver isoform (Homo sapiens) (P46019 whole entry, canonical isoform): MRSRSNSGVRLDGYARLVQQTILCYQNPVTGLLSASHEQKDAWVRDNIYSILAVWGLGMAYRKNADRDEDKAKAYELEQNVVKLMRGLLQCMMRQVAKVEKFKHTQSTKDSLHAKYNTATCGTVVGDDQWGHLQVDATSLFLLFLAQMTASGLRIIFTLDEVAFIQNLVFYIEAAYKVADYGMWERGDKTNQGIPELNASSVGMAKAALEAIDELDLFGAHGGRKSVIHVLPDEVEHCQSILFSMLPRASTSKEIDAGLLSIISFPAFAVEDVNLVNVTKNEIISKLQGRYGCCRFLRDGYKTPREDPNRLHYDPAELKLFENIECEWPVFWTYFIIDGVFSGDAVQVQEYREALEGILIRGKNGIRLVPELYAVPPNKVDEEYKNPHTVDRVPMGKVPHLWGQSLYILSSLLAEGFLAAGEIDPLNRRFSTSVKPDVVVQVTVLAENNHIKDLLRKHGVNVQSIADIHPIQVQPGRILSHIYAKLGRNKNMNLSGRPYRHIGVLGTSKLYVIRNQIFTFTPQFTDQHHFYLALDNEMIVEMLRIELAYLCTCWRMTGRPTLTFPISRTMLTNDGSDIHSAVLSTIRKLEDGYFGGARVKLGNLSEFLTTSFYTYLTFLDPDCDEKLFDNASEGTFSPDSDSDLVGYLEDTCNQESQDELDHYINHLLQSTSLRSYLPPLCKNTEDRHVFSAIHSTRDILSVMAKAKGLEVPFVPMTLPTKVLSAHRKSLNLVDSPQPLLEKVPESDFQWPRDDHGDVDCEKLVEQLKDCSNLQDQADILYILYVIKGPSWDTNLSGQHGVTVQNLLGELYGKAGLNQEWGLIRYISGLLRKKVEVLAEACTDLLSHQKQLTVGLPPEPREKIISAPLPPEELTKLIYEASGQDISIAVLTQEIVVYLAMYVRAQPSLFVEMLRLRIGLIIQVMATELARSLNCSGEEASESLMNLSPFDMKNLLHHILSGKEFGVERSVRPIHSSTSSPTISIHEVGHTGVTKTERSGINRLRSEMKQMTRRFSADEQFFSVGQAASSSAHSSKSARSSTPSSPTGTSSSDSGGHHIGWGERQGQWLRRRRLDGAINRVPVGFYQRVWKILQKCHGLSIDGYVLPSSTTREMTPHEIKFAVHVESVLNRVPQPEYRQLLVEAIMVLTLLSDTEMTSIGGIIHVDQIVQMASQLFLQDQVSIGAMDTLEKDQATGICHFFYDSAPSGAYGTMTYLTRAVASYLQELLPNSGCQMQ

[10] = molecular target: Non-receptor tyrosine-protein kinase TYK2 (Homo sapiens) (UniProt P29597); conditions: Compound concentration 1000.0 nM
Chain of Non-receptor tyrosine-protein kinase TYK2 (Homo sapiens) (P29597 whole entry): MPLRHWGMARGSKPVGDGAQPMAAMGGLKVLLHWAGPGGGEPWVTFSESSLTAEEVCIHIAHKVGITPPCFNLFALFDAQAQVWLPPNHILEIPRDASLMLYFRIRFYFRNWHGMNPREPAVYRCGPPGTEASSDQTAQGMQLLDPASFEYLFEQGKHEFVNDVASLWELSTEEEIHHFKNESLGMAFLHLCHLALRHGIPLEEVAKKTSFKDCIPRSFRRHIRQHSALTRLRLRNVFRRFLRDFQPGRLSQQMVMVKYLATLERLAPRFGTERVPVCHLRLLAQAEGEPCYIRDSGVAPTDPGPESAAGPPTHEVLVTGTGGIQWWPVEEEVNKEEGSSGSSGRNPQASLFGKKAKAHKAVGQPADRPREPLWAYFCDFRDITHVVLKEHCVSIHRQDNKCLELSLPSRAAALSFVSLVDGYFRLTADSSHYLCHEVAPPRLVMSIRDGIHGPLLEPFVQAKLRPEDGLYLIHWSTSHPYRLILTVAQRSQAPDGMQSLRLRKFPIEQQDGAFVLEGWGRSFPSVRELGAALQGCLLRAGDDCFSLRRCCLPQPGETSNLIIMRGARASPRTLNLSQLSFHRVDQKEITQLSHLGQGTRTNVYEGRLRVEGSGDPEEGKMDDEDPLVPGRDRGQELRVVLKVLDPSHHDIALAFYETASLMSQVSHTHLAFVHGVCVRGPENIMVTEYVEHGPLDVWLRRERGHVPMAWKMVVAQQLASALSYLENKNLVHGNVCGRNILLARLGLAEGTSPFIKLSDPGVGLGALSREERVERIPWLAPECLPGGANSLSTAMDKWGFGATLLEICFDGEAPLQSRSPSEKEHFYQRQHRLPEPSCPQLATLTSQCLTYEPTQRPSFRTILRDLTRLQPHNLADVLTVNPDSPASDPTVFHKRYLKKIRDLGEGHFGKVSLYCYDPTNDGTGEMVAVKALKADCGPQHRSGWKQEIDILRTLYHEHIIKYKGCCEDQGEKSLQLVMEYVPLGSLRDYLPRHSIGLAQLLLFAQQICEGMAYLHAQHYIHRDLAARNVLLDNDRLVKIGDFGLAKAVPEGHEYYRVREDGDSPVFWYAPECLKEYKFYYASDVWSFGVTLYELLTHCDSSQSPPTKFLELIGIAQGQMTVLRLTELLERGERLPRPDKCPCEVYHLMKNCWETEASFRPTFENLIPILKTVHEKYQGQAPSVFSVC

[11] = molecular target: Tyrosine-protein kinase JAK1 (Homo sapiens) (UniProt P23458); conditions: Compound concentration 1000.0 nM
[12] = molecular target: Serine/threonine-protein kinase PAK 5 (Homo sapiens) (UniProt Q9P286); conditions: Compound concentration 1000.0 nM
Chain of Serine/threonine-protein kinase PAK 5 (Homo sapiens) (Q9P286 whole entry, looked up): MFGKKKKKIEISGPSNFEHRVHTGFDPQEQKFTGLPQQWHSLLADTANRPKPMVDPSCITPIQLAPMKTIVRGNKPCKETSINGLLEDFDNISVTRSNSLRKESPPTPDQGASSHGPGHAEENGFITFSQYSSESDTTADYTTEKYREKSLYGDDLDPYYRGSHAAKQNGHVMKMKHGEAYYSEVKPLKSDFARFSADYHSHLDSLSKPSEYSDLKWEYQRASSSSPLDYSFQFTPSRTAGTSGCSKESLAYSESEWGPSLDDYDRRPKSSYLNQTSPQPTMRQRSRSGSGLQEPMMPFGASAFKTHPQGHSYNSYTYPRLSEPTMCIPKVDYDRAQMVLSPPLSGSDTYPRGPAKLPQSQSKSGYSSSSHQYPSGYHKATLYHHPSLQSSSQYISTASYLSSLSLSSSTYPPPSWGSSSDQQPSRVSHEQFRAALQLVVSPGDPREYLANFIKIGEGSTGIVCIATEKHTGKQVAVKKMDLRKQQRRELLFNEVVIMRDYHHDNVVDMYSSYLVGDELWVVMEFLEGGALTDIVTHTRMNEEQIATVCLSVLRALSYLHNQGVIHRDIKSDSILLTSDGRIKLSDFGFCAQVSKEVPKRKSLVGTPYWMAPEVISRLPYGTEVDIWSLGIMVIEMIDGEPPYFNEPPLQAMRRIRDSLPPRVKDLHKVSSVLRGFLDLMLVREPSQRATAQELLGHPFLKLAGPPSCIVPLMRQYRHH

[13] = molecular target: RAC-alpha serine/threonine-protein kinase (Homo sapiens) (UniProt P31749); conditions: Compound concentration 1000.0 nM
[14] = molecular target: Beta-2 adrenergic receptor (Homo sapiens) (UniProt P07550); conditions: Compound concentration 10.0 uM
[15] = molecular target: Tyrosine-protein kinase JAK2 (Homo sapiens) (UniProt O60674); conditions: Compound concentration 1000.0 nM
[16] = molecular target: LIM domain kinase 2 (Homo sapiens) (UniProt P53671); conditions: Compound concentration 1000.0 nM
[17] = molecular target: Membrane-associated tyrosine- and threonine-specific cdc2-inhibitory kinase (Homo sapiens) (UniProt Q99640); conditions: Compound concentration 1000.0 nM
[18] = molecular target: Serine/threonine-protein kinase Nek6 (Homo sapiens) (UniProt Q9HC98); conditions: Compound concentration 1000.0 nM
[19] = molecular target: Cyclin-dependent kinase 16 (Homo sapiens) (UniProt Q00536); conditions: Compound concentration 1000.0 nM
[20] = molecular target: Homeodomain-interacting protein kinase 2 (Homo sapiens) (UniProt Q9H2X6); conditions: Compound concentration 1000.0 nM
[21] = molecular target: Dual specificity protein kinase TTK (Homo sapiens) (UniProt P33981); conditions: Compound concentration 1000.0 nM
[22] = molecular target: Dual specificity mitogen-activated protein kinase kinase 1 (Homo sapiens) (UniProt Q02750); conditions: Compound concentration 1000.0 nM
[23] = molecular target: Mitogen-activated protein kinase 3 (Homo sapiens) (UniProt P27361); conditions: Compound concentration 1000.0 nM
[24] = molecular target: Mitogen-activated protein kinase kinase kinase 14 (Homo sapiens) (UniProt Q99558); conditions: Compound concentration 1000.0 nM
[25] = molecular target: Serine/threonine-protein kinase PLK4 (Homo sapiens) (UniProt O00444); conditions: Compound concentration 1000.0 nM
[26] = molecular target: Serine/threonine-protein kinase WNK2 (Homo sapiens) (UniProt Q9Y3S1); conditions: Compound concentration 1000.0 nM
[27] = test system: Proto-oncogene tyrosine-protein kinase receptor Ret (Homo sapiens), P07949 [V804L]; conditions: Compound concentration 1000.0 nM
[28] = molecular target: Cyclin-dependent kinase 14 (Homo sapiens) (UniProt O94921); conditions: Compound concentration 1000.0 nM
[29] = molecular target: MAP kinase-activated protein kinase 5 (Homo sapiens) (UniProt Q8IW41); conditions: Compound concentration 1000.0 nM
[30] = molecular target: RAC-gamma serine/threonine-protein kinase (Homo sapiens) (UniProt Q9Y243); conditions: Compound concentration 1000.0 nM
[31] = molecular target: Testis-specific serine/threonine-protein kinase 3 (Homo sapiens) (UniProt Q96PN8); conditions: Compound concentration 1000.0 nM
Chain of Testis-specific serine/threonine-protein kinase 3 (Homo sapiens) (Q96PN8 whole entry): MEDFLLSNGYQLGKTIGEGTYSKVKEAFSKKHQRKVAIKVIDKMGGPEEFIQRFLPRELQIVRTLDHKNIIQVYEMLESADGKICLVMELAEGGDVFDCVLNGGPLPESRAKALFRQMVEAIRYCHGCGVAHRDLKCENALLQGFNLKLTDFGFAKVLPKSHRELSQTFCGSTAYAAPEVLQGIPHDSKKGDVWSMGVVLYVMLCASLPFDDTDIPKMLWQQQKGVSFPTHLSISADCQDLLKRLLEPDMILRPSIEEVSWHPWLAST

[32] = molecular target: Receptor-interacting serine/threonine-protein kinase 1 (Homo sapiens) (UniProt Q13546); conditions: Compound concentration 1000.0 nM
[33] = molecular target: Megakaryocyte-associated tyrosine-protein kinase (Homo sapiens) (UniProt P42679); conditions: Compound concentration 1000.0 nM
Chain of Megakaryocyte-associated tyrosine-protein kinase (Homo sapiens) (P42679 whole entry): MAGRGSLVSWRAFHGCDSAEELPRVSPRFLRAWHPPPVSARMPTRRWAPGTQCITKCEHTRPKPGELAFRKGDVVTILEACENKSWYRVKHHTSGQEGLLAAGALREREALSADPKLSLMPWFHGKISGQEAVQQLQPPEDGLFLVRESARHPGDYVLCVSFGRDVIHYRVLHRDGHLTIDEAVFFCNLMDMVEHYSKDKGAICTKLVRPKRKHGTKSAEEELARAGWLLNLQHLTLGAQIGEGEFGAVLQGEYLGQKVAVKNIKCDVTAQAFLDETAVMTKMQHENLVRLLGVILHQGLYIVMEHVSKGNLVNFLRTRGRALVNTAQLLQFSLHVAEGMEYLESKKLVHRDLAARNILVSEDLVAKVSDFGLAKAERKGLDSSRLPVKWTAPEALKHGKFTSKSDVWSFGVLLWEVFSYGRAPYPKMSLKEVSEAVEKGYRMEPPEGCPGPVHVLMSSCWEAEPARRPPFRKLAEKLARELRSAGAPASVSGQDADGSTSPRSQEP

[34] = molecular target: Dual specificity mitogen-activated protein kinase kinase 3 (Homo sapiens) (UniProt P46734); conditions: Compound concentration 1000.0 nM
[35] = molecular target: STE20/SPS1-related proline-alanine-rich protein kinase (Homo sapiens) (UniProt Q9UEW8); conditions: Compound concentration 1000.0 nM
[36] = molecular target: Serine/threonine-protein kinase MRCK beta (Homo sapiens) (UniProt Q9Y5S2); conditions: Compound concentration 1000.0 nM
[37] = test system: Proto-oncogene tyrosine-protein kinase receptor Ret (Homo sapiens), P07949 [M918T]; conditions: Compound concentration 1000.0 nM
[38] = molecular target: Testis-specific serine/threonine-protein kinase 1 (Homo sapiens) (UniProt Q9BXA7); conditions: Compound concentration 1000.0 nM
[39] = molecular target: Serine/threonine-protein kinase PAK 1 (Homo sapiens) (UniProt Q13153); conditions: Compound concentration 1000.0 nM
Chain of Serine/threonine-protein kinase PAK 1 (Homo sapiens) (Q13153 whole entry): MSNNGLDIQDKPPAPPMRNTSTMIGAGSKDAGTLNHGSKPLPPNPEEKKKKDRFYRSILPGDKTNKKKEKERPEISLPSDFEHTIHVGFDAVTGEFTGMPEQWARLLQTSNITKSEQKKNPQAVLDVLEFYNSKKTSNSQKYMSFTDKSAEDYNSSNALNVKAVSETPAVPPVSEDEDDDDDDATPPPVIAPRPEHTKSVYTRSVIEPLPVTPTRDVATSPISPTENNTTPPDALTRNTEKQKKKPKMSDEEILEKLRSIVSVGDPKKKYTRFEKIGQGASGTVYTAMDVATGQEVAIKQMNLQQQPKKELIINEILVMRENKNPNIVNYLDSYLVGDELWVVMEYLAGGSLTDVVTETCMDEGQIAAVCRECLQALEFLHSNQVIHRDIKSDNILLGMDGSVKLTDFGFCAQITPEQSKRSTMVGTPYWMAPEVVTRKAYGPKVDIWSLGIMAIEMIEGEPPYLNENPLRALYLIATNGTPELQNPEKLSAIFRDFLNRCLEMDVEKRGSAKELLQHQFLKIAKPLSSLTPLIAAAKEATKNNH

[40] = molecular target: Serine/threonine-protein kinase tousled-like 2 (Homo sapiens) (UniProt Q86UE8); conditions: Compound concentration 1000.0 nM
[41] = molecular target: Tyrosine-protein kinase JAK3 (Homo sapiens) (UniProt P52333); conditions: Compound concentration 1000.0 nM
[42] = test system: Tyrosine-protein kinase ABL1 (Homo sapiens), P00519 [H396P]; conditions: Compound concentration 1000.0 nM
[43] = molecular target: Homeodomain-interacting protein kinase 3 (Homo sapiens) (UniProt Q9H422); conditions: Compound concentration 1000.0 nM
[44] = molecular target: Mitogen-activated protein kinase kinase kinase 2 (Homo sapiens) (UniProt Q9Y2U5); conditions: Compound concentration 1000.0 nM
[45] = molecular target: Protein-tyrosine kinase 2-beta (Homo sapiens) (UniProt Q14289); conditions: Compound concentration 1000.0 nM

N#Cc1ccc(Nc2ccc3[nH]c(=O)[nH]c3c2)c(Cl)c1
inactive: residual activity [1] 100% | residual activity [2] 100% | residual activity [3] 100% | residual activity [4] 100% | residual activity [5] 78% | residual activity [6] 96% | residual activity [7] 100% | residual activity [8] 95% | residual activity [9] 100% | residual activity [10] 100% | residual activity [11] 100% | residual activity [12] 100% | residual activity [13] 67% | inhibition [14] -0.51% | residual activity [15] 100% | residual activity [16] 100% | residual activity [17] 100% | residual activity [18] 100% | residual activity [19] 100% | residual activity [20] 100% | residual activity [21] 88% | residual activity [22] 88% | residual activity [23] 95% | residual activity [24] 100% | residual activity [25] 87% | residual activity [26] 100% | residual activity [27] 100% | residual activity [28] 100% | residual activity [29] 92% | residual activity [30] 69% | residual activity [31] 100% | residual activity [32] 100% | residual activity [33] 100% | residual activity [34] 75% | residual activity [35] 100% | residual activity [36] 100% | residual activity [37] 100% | residual activity [38] 56% | residual activity [39] 85% | residual activity [40] 96% | residual activity [41] 100% | residual activity [42] 95% | residual activity [43] 94% | residual activity [44] 100% | residual activity [45] 100%

O=C1CCc2cc(Nc3cc(OC4CCOCC4)c([N+](=O)[O-])cc3Cl)ccc2N1
inactive: residual activity [1] 100% | residual activity [2] 90% | residual activity [3] 96% | residual activity [4] 100% | residual activity [5] 93% | residual activity [6] 100% | residual activity [7] 100% | residual activity [8] 100% | residual activity [9] 100% | residual activity [10] 100% | residual activity [11] 94% | residual activity [12] 100% | residual activity [13] 98% | inhibition [14] -1.73% | residual activity [15] 100% | residual activity [16] 100% | residual activity [17] 79% | residual activity [18] 96% | residual activity [19] 88% | residual activity [20] 100% | residual activity [21] 87% | residual activity [22] 72% | residual activity [23] 78% | residual activity [24] 81% | residual activity [25] 86% | residual activity [26] 100% | residual activity [27] 91% | residual activity [28] 100% | residual activity [29] 78% | residual activity [30] 94% | residual activity [31] 100% | residual activity [32] 100% | residual activity [33] 100% | residual activity [34] 86% | residual activity [35] 100% | residual activity [36] 90% | residual activity [37] 94% | residual activity [38] 85% | residual activity [39] 88% | residual activity [40] 81% | residual activity [41] 96% | residual activity [42] 85% | residual activity [43] 91% | residual activity [44] 100% | residual activity [45] 83%
